Measurements published in ChEMBL document CHEMBL4419175, “Compositions for treatment, diagnosis and prognosis of diseases” (2016).
Calls of active or inactive are those of the source. No cut-off for these calls is given here.

How the values were obtained:
PC-3 [1] = test: Induction of apoptosis in human PC3 cells assessed as early apoptotic cells at 50 uM incubated for 48 hrs by Annexin-/7-AAD staining based FACS analysis (reference value: 2.53%); format: functional
HCT-116 = test: Inhibition of cell proliferation in human HCT116 cells assessed as reduction in viable cell count at 10 to 100 uM incubated for 48 hrs; format: functional, cell-based
LNCaP [2] = test: Effect on CREB phosphorylation in human LNCAP cells at 20 uM incubated for 48 hrs by immunoblot analysis; format: functional, cell-based
PC-3 [3] = test: Induction of cell cycle arrest in human PC3 cells assessed as change in accumulation at G2/M phase at 50 uM incubated for 48 hrs by flow cytometry relative to control; format: functional
LNCaP [4] = test: Inhibition of AR protein expression in human LNCAP cells at 20 uM incubated for 48 hrs by immunoblot analysis; format: functional, cell-based
PC-3 [5] = test: Inhibition of PIP5K1alpha protein expression in human PC3 cells assessed as reduction in cyclin E1 expression at 50 uM incubated for 48 hrs by immunoblot analysis relative to control; format: functional, cell-based
[6] = biological target: Serine/threonine-protein kinase MARK1 (Homo sapiens) (UniProt Q9P0L2); test: Binding affinity to human MARK1
Sequence of Serine/threonine-protein kinase MARK1 (Homo sapiens) (Q9P0L2 whole entry, looked up): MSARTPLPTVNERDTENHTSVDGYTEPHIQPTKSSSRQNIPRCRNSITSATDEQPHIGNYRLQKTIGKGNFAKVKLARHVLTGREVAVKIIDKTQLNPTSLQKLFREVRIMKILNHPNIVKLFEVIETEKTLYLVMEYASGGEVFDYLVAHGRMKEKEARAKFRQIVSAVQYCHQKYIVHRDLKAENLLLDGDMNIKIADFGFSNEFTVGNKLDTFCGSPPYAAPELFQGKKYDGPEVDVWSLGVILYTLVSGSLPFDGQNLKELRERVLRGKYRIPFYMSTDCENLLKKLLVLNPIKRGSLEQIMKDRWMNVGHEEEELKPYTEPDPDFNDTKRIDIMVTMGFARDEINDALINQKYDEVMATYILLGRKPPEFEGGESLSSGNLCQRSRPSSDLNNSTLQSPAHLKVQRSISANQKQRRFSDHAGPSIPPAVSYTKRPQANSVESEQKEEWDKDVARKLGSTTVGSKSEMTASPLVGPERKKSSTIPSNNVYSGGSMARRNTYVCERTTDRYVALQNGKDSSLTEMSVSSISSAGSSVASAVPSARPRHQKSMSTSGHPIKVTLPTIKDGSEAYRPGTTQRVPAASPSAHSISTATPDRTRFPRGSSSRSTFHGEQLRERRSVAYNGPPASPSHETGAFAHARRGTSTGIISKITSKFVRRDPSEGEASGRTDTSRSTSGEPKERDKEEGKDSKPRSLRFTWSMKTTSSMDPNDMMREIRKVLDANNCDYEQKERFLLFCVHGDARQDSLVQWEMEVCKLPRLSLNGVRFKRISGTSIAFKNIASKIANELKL

LNCaP [7] = test: Induction of apoptosis in human LNCAP cells assessed as formation of apoptotic bodies at 20 uM incubated for 48 hrs; format: functional, cell-based
[8] = biological target: T1, MAP/microtubule affinity-regulating kinase 4 (Homo sapiens) (UniProt Q96L34); test: Binding affinity to human MARK4
T1 sequence (whole entry): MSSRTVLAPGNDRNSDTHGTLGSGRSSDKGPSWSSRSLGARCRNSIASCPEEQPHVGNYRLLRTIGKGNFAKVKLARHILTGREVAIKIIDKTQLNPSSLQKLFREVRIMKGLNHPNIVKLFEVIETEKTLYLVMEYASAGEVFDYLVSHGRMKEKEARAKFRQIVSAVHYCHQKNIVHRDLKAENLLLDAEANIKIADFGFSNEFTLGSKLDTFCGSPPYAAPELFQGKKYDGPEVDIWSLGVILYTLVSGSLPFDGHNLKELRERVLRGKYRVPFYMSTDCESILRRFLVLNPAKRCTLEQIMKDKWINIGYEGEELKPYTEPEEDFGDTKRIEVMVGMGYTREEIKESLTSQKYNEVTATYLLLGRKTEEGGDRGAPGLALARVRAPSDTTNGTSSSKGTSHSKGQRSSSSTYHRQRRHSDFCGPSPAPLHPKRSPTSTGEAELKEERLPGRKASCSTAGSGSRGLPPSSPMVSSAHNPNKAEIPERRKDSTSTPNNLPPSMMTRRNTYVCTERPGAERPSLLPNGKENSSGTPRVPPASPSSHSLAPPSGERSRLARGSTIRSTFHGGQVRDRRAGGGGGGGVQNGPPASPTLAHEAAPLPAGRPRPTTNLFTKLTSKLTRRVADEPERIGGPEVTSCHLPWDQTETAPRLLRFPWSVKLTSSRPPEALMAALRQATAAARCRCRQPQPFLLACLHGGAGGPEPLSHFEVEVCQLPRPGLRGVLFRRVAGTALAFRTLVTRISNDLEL

PC-3 [9] = test: Inhibition of PIP5K1alpha protein expression in human PC3 cells at 20 uM incubated for 48 hrs by immunoblot analysis; format: functional, cell-based
[10] = Toxicity in mouse xenografted with human PC3 cells assessed as induction of body weight loss at 40 mg/kg co-treated with 10 mg/kg docetaxel dosed every second day starting from day 0 and ending on day 20; format: organism-based; settings: in vivo
LNCaP [11] = test: Reduction in SKP2 protein expression in human LNCAP cells at 20 uM incubated for 48 hrs by immunoblot analysis; format: functional, cell-based
PC-3 [12] = test: Induction of morphological changes in human PC3 cells assessed as changes in morphology at 50 uM incubated for 48 hrs by live cell imaging system based assay; format: functional
MDA-MB-231 = test: Inhibition of cell proliferation in human MDA-MB-231 cells assessed as reduction in viable cell count at 10 to 100 uM incubated for 48 hrs; format: functional, cell-based
PC-3 [13] = test: Antiproliferation activity against human PC3 cells assessed as cell proliferation at 10 uM by MTS assay; format: functional; settings: read-out: Activity
PC-3 [14] = test: Inhibition of PKAR1alpha protein expression in human PC3 cells at 20 uM incubated for 48 hrs by immunoblot analysis; format: functional, cell-based
PC-3 [15] = test: Inhibition of PIP5K1alpha protein expression in human PC3 cells assessed as reduction in CDK1 phosphorylation at 50 uM incubated for 48 hrs by immunoblot analysis relative to control; format: functional, cell-based
LNCaP [16] = test: Inhibition of PIP5K1alpha protein expression in human LNCAP cells assessed as reduction in AKT phosphorylation at Ser473 residues at 20 uM incubated for 48 hrs by immunoblot analysis relative to control; format: functional
U-937 = test: Inhibition of cell proliferation in human U937 cells assessed as reduction in viable cell count at 10 to 100 uM incubated for 48 hrs; format: functional, cell-based
[17] = Toxicity in mouse xenografted with human PC3 cells assessed as induction of body weight loss at 40 mg/kg dosed every second day starting from day 0 and ending on day 20; format: organism-based; settings: in vivo
LNCaP [18] = test: Inhibition of PIP5K1alpha protein expression in human LNCAP cells at 20 uM incubated for 48 hrs by immunoblot analysis; format: functional, cell-based
PC-3 [19] = test: Induction of apoptosis in human PC3 cells assessed as viable cells at 50 uM incubated for 48 hrs by Annexin-/7-AAD staining based FACS analysis (reference value: 94.31%); format: functional; settings: PC-3, 48 h, read-out: Activity
LNCaP [20] = test: Inhibition of PIP5K1alpha protein expression in human LNCAP cells assessed as reduction in AKT phosphorylation at Ser473 residues at 20 uM incubated for 48 hrs by immunofluorescent analysis relative to control; format: functional, cell-based
PC-3 [21] = test: Induction of apoptosis in human PC3 cells assessed as late apoptotic cells at 50 uM incubated for 48 hrs by Annexin-/7-AAD staining based FACS analysis (reference value: 2.83%); format: functional
PC-3 [22] = test: Inhibition of PIP5K1alpha protein expression in human PC3 cells assessed as reduction in cyclin B1 expression at 50 uM incubated for 48 hrs by immunoblot analysis relative to control; format: functional, cell-based
LNCaP [23] = test: Reduction in CDK1 protein expression in human LNCAP cells at 20 uM incubated for 48 hrs by immunoblot analysis; format: functional, cell-based
PC-3 [24] = test: Antiproliferation activity against human PC3 cells assessed as cell proliferation at 20 uM by MTS assay; format: functional; settings: read-out: Activity
PC-3 [25] = test: Inhibition of PIP3 protein expression in human PC3 cells at 50 uM incubated for 48 hrs by immunoblot analysis; format: functional, cell-based
PC-3 [26] = test: Inhibition of PIP5K1alpha protein expression in human PC3 cells assessed as reduction in cyclin A2 expression at 50 uM incubated for 48 hrs by immunoblot analysis relative to control; format: functional, cell-based
[27] = biological target: Phosphatidylinositol 4-phosphate 5-kinase type-1 alpha (Homo sapiens) (UniProt Q99755); test: Binding affinity to human PIP5K1alpha
Sequence of Phosphatidylinositol 4-phosphate 5-kinase type-1 alpha (Homo sapiens) (Q99755 whole entry): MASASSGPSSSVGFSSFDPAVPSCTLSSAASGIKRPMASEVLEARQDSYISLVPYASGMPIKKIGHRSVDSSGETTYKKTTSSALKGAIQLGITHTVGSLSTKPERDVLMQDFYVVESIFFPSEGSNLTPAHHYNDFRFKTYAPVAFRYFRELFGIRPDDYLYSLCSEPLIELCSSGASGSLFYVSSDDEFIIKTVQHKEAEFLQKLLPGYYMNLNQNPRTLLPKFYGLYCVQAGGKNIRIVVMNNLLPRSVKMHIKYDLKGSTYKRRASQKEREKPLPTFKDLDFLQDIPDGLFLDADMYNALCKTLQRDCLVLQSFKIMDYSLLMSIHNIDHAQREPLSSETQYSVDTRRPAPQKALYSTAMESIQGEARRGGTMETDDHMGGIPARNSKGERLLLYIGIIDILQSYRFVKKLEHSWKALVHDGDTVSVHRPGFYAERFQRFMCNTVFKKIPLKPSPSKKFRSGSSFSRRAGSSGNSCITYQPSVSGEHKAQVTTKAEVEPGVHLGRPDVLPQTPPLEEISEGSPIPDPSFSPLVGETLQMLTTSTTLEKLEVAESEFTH

PC-3 [28] = test: Antiproliferation activity against human PC3 cells assessed as cell proliferation at 50 uM by MTS assay; format: functional; settings: read-out: Activity
PC-3 [29] = test: Inhibition of PIP5K1alpha protein expression in human PC3 cells assessed as AKT phosphorylation at Ser473 residues at 50 uM incubated for 48 hrs by immunoblot analysis relative to control; format: functional; parameters: scale not given: the % may be the effect or the level left
LNCaP [30] = test: Inhibition of cell proliferation in human LNCAP cells assessed as reduction in viable cell count at 10 to 100 uM incubated for 48 hrs; format: functional, cell-based
PC-3 [31] = test: Antitumor activity against human PC3 cells xenografted in mouse assessed as reduction in volume at 40 mg/kg co-treated with 10 mg/kg docetaxel dosed every second day starting from day 0 and ending on day 20 (reference value: 500 mm3); format: functional
PC-3 [32] = test: Inhibition of PIP5K1alpha protein expression in human PC3 cells assessed as reduction in cyclin D1 expression at 50 uM incubated for 48 hrs by immunoblot analysis relative to control; format: functional, cell-based
CWR22R = test: Antiproliferation activity against human 22Rv1 cells assessed as cell proliferation at 10 to 50 uM by MTS assay; format: functional, cell-based
PC-3 [33] = test: Inhibition of cell adhesion in human PC3 cells assessed as cell adhesion relative to control; format: functional; parameters: scale not given: the % may be the effect or the level left
PC-3 [34] = test: Inhibition of PIP5K1alpha protein expression in human PC3 cells assessed as PIP5K1alpha/beta-actin ratio level at 20 uM incubated for 48 hrs by immunoblot analysis (reference value: 9.43); format: functional
PC-3 [35] = test: Induction of morphological changes in human PC3 cells assessed as reduction in cell size at 50 uM incubated for 48 hrs by live cell imaging system based assay; format: functional
Caco-2 = test: Inhibition of cell proliferation in human Caco2 cells assessed as reduction in viable cell count at 10 to 100 uM incubated for 48 hrs; format: functional, cell-based
LNCaP [36] = test: Increase in p27 protein expression in human LNCAP cells at 20 uM incubated for 48 hrs by immunoblot analysis; format: functional, cell-based
LNCaP [37] = test: Inhibition of PSA protein expression in human LNCAP cells at 20 uM incubated for 48 hrs by immunoblot analysis; format: functional, cell-based
PC-3 [38] = test: Antitumor activity against human PC3 cells xenografted in mouse assessed as reduction in volume at 40 mg/kg dosed every second day starting from day 0 and ending on day 20 relative to control; format: functional
LNCaP [39] = test: Induction of apoptosis in human LNCAP cells assessed as formation of fragmented nucleus at 20 uM incubated for 48 hrs; format: functional, cell-based
PC-3 [40] = test: Inhibition of cell invasion in human PC3 cells assessed as cell invasion relative to control; format: functional; parameters: scale not given: the % may be the effect or the level left
PC-3 [41] = test: Induction of apoptosis in human PC3 cells assessed as necrotic cells at 50 uM incubated for 48 hrs by Annexin-/7-AAD staining based FACS analysis (reference value: 0.32%); format: functional
PC-3 [42] = test: Inhibition of PIP5K1alpha protein expression in human PC3 cells assessed as reduction in CDK1 expression at 50 uM incubated for 48 hrs by immunoblot analysis relative to control; format: functional, cell-based
PC-3 [43] = test: Inhibition of PIP5K1alpha protein expression in human PC3 cells assessed as reduction in FAK phosphorylation incubated for 48 hrs by immunoblot analysis relative to control; format: functional, cell-based

Structure (SMILES): CN1CC(=O)N2[C@H](c3c[nH]c4ccc(Cl)cc34)c3cc4c(cc3C[C@H]2C1=O)OCO4
- Activity (PC-3 [1]): 9.55%
- inhibition (HCT-116): Active
- Activity (LNCaP [2]): inactive
- Activity (PC-3 [3]): 4.96%
- inhibition (LNCaP [4]): Active
- inhibition (PC-3 [5]): Active
- Activity [6]: Active
- Activity (LNCaP [7]): Active
- Activity [8]: Active
- inhibition (PC-3 [9]): Active
- Activity [10]: Non-Toxic
- Activity (LNCaP [11]): Active
- Activity (PC-3 [12]): Active
- inhibition (MDA-MB-231): Active
- growth at 10 µM (PC-3 [13]): 58.8%
- inhibition (PC-3 [14]): inactive
- inhibition (PC-3 [15]): Active
- inhibition at 20 µM (LNCaP [16]): 75.5%
- inhibition (U-937): Active
- Activity [17]: Non-Toxic
- inhibition (LNCaP [18]): Active
- viability at 50 µM (PC-3 [19]): 80.2%
- inhibition (LNCaP [20]): Active
- Activity (PC-3 [21]): 9.42%
- inhibition (PC-3 [22]): Active
- Activity (LNCaP [23]): Active
- growth at 20 µM (PC-3 [24]): 48.6%
- Activity (PC-3 [25]): Active
- inhibition (PC-3 [26]): Active
- Activity [27]: Active
- growth at 50 µM (PC-3 [28]): 21.6%
- Activity (PC-3 [29]): 29.77%
- inhibition (LNCaP [30]): Active
- Activity (PC-3 [31]): 36 mm3
- inhibition (PC-3 [32]): Active
- Activity (CWR22R): Active
- Activity (PC-3 [33]): 38.82%
- Ratio (PC-3 [34]): 2.01
- Activity (PC-3 [35]): Active
- inhibition (Caco-2): Active
- Activity (LNCaP [36]): Active
- inhibition (LNCaP [37]): Active
- Activity (PC-3 [38]): 458 mm3
- Activity (LNCaP [39]): Active
- Activity (PC-3 [40]): 55.96%
- Activity (PC-3 [41]): 0.8%
- inhibition (PC-3 [42]): Active
- inhibition (PC-3 [43]): Dose-dependent effect
